Assay results published in patent publication EP0532097A1, “Piperazinyl(sulfon)amide derivatives of camphor as oxytocin antagonists” (MERCK & CO. INC., priority 1991, dated 1993).

Target: T1, uterine OT receptors (Rattus norvegicus, UniProt P70536)
T1 construct: using a crude membrane preparation of uteri; from tissue; host or cells: uterus of DES-treated rats, crude membrane preparation
T1 sequence (P70536 1-388): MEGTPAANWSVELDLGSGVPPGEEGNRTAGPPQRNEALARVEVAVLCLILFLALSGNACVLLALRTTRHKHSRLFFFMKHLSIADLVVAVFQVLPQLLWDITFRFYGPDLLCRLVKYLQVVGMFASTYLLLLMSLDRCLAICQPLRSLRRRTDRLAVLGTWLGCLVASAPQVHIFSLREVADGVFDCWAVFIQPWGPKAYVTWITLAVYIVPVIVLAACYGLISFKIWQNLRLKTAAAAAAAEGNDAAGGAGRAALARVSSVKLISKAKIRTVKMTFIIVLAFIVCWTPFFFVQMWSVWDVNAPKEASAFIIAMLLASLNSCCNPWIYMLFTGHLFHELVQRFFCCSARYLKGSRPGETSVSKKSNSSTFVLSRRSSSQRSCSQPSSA
Assay: [³H]Oxytocin radioligand binding assay, crude membrane preparation of uteri from DES-treated rats
Details: for IC50: competition with 1 nM [³H]OT, 60 minutes, 22°C, concentration that inhibits 50% of OT, read-out: IC50; for inhibition at 0.1 µM: read-out: inhibition at 100 nM; for inhibition at 1 µM: read-out: inhibition at 1,000 nM
Procedure: The high affinity binding of [³H] Oxytocin (OT)([tyrosyl, 3,5-[³H]OT; 30-60 Ci/mmol; New England Nuclear. Boston, MA) to uterine OT receptors was based on an assay (Fuchs, A-R; Fuchs, F; Soloff, MS. 1985 J. Clin. Endocrinol. Metab. 60:37) using a crude membrane preparation of uteri taken from diethylstilbestrol dipropionate (DES)-treated (0.3 mg/kg, ip; 18-24) rats. Competition studies were conducted at equilibrium (60 minutes; 22°C) using 1 nM[³H]OT in the following assay buffer: 50 mM Tris-HCl, 5 mM MgCl₂, and 0.1% BSA, pH 7.4. Nonspecific binding (10% of the total binding) was determined using 1 mM unlabeled OT and the binding reaction was terminated by filtration through glass fiber filters using a cell harvester (model 7019, Skatron, Inc., Sterling, VA). IC₅₀ (the concentration of tested compound that inhibits 50% of OT) was reported, unless otherwise noted.

Molecule	IC50 [nM]	inhibition at 0.1 µM [%]	other results
Cc1ccccc1N1CCN(S(=O)(=O)C[C@]23CC[C@H](C[C@@H]2N(C)C(=O)[C@@H](N)CCS(C)(=O)=O)C3(C)C)CC1 [Example 41, 1-((7,7-dimethyl-2-endo-methyl(2S-amino-4-(methylsulfonyl)butanoyl)amino-bicyclo(2.2.1)heptan-1-yl)methanesulfonyl)-4-(2-methylphenyl)-piperazine]	6.3		
Cc1ccccc1N1CCN(S(=O)(=O)C[C@]23CC[C@H](C[C@@H]2C(=O)NCCc2cnc[nH]2)C3(C)C)CC1 [Example 25, 1-((7,7-Dimethyl-2-endo-(4-imidazolyl)ethylamino-carbonyl-bicyclo-(2.2.1)heptan-1-yl)methanesulfonyl)-4-(2-methylphenyl)piperazine]		34	
Cc1ccccc1N1CCN(S(=O)(=O)CC23CCC(CC2=O)C3(C)C)CC1=O (stereo not shown) [Example 30, 1-((7,7-Dimethyl-2-oxo-bicyclo(2.2.1)heptan-1-yl)methanesulfonyl)-4-(2-methylphenyl)-3-piperazinone]			inhibition at 10 µM (read-out: inhibition at 10,000 nM): 16%
1-((7,7-Dimethyl-2-exo-hydroxy-2-endo-2-(1-(4-pyridinyl)methylamino)-propyl-bicyclo(2.2.1)heptan-1-yl)methanesulfonyl)-4-(2-methylphenyl)-piperazine [Example 27]			inhibition at 100 nM (at 100 nM): 37% inhibition at 100 nM
CCOC(=O)CN1CCC(C(=O)NCC(C)C2(O)CC3CCC2(CS(=O)(=O)N2CCN(c4ccccc4C)CC2)C3(C)C)CC1 (stereo not drawn) [Example 57, 1-((7,7-Dimethyl-2-exo-hydroxy-2-endo-2-(1-(3-(1-ethoxycarbonyl-methyl)piperidinylcar-bonyl)amino)propyl-bicyclo(2.2.1)heptan-1-yl)methanesulfonyl)-4-(2-methylphenyl)piperazine]		66	
Two isomers of 1-((7,7-dimethyl-2-exo-hydroxy-2-endo-2-(1-(3-methoxycarbonyl)-2-pyrrolidinon-1-yl)propylbicyclo-(2.2.1)heptan-1-yl)methanesulfonyl)-4-(2-methylphenyl)piperazine [Example 26]	35		
Cc1ccccc1N1CCN(S(=O)(=O)C[C@]23CC[C@H](C[C@@H]2NC(=O)Cc2c[nH]cn2)C3(C)C)CC1 [Example 43]	110		
CCOC(=O)CN1CCCC(C(=O)NCC(C)C2(O)CC3CCC2(CS(=O)(=O)N2CCN(c4ccccc4C)CC2)C3(C)C)C1 (stereo not drawn) [Example 50, 1-((7,7-Dimethyl-2-exo-hydroxy-2-endo-2-(1-(3-(1-ethoxycarbonyl-methyl)piperidinylcar-bonyl)amino)propyl-bicyclo(2.2.1)heptan-1-yl)methanesulfonyl)-4-(2-methylphenyl)piperazine]		66	
[³H]OT [reference compound]			Kd (saturation binding assay, uterus): 0.7 nM
Cc1ccccc1N1CCN(S(=O)(=O)CC23CCC(CC2=CCN=[N+]=[N-])C3(C)C)CC1 (stereo not shown) [Example 15, 1-((7,7-dimethyl-2-(2-azido)ethylidine-bicyclo-(2.2.1)heptan-1-yl)methanesulfonyl)-4-(2-methyl-phenyl)piperazine]			inhibition at 1 µM: 44%
CCOC(=O)CN1CCCC1C(=O)NCC(C)C1(O)CC2CCC1(CS(=O)(=O)N1CCN(c3ccccc3C)CC1)C2(C)C (stereo not drawn) [Example 52, 1-((7,7-Dimethyl-2-exo-hydroxy-2-endo-2-(1-(l-n-(ethoxycarboxymethyl)-prolyl)amino)propyl-bicyclo-(2.2.1)heptan-1-yl)methanesulfonyl)-4-(2-methylphenyl)piperazine]		66	
Cc1ccccc1N1CCN(S(=O)(=O)C[C@]23CC[C@H](C[C@@H]2NC(=O)[C@@H](N)CCS(C)(=O)=O)C3(C)C)CC1 [Example 36, 1-((7,7-Dimethyl-2-endo-(2S-amino-4-(methylsulfonyl)-butyramido)-bicyclo(2.2.1)heptan-1-yl)methanesulfonyl)-4-(2-methylphenyl)piperazine]	7.7		
Cc1ccccc1N1CCN(S(=O)(=O)C[C@]23CC[C@H](C[C@@H]2N(C)C(=O)OCc2ccccc2)C3(C)C)CC1 [Example 40, 1-((7,7-Dimethyl-2-endo-methyl(benzyloxy-carbonyl)amino-bicyclo(2.2.1)-heptan-1-yl)methanesulfonyl)4-(2-methylphenyl)piperazine]			inhibition at 1 µM: 35%
